Experimental data: patent US20240174744A1, “METHODS OF TREATMENT USING PROTEIN BINDERS TO IRHOM2 EPITOPES” (SCIRHOM GMBH, priority 2021, published 2024)

Tested on: PMA-induced release of IL-6R from PBMCs from healthy donors
Experiment: ELISA-based IL-6R release assay, PBMCs from healthy donors
Format: cell-based
Conditions: Homo sapiens, PBMC; recombinant murine antibodies 1 μg/ml; Batimastat 10 μM; PMA 25 ng/ml, 6 hours
Description: In the following study, ELISA-based IL-6R release assays were performed to analyze the inhibitory effects of the antibodies of the present disclosure on PMA-induced release of endogenous IL-6R from primary human material obtained from healthy donors using peripheral blood mononuclear cells (PBMCs).
In brief, on day 1, Nunc black MaxiSorp® 96-well plates (Thermo Fisher Scientific, USA) were coated overnight with 100 μl per well of mouse anti-human IL-6R capture antibody (provided as part of the DuoSet ELISA kit) at 4 μg/ml TBS at 4° C. On day 2, the capture antibody solution was removed and MaxiSorp® plates were blocked with 300 μl per well of TBS, 1% BSA at room temperature for 3 hours. […] Using an infinite M1000 (Tecan Group, Switzerland) microplate reader, the fluorescence of each well was collected at an excitation wavelength of 435 nm and an emission wavelength of 555 nm.

## CNC(=O)[C@H](Cc1ccccc1)NC(=O)[C@H](CC(C)C)[C@H](CSc1cccs1)C(=O)NO [Batimastat]
  inhibition at 10 µM: 114%
